Format in all cases: physicochemical
Series [1] is described as follows: Stability under mechanical force (ball milling). As to conditions: milled 5 minutes at 500 rpm, XRPD. The procedure:
The crystalline form of the sample before and after ball milling were tested by XRPD, and the XRPD overlay is depicted in FIG. 6.

A short description of series [2]: Hygroscopicity and humidity stability by DVS. The procedure: DVS data in the present disclosure were measured via an SMS (Surface Measurement Systems Ltd.) intrinsic DVS instrument. The instrument control software is DVS-Intrinsic control software. Typical Parameters for DVS test are as follows: • Temperature: 25° C. • Gas and flow rate: N2, 200 mL/min • RH range: 0% RH to 95% RH
DVS analyzer was applied to evaluate the hygroscopicity of Form CSI with an appropriate amount. The mass changes at each relative humidity were recorded in a cycle of 0% RH-95%RH-0%RH. The crystalline form of the sample before and after DVS were tested by XRPD.

A short description of series [3]: Physical and chemical stability on storage (XRPD, HPLC). The procedure:
Chemical purity and crystalline form were tested by HPLC and XRPD.

The mark [4] stands for this setting: 25° C./60% RH, 9 months, sealed container.
Where [5] appears, read: 40° C./75% RH, 9 months, sealed container.
The mark [6] stands for this setting: 60° C./75% RH, 3 months, sealed container.

Each structure is given as a SMILES string. Entries after “also recorded” stand apart in the source; their conditions may differ.

Turning to `CCc1nc(-c2ccc3c(c2)CC[C@H]3NC(=O)c2cnn(C)c2)no1.CCc1nc(-c2ccc3c(c2)CC[C@H]3NC(=O)c2cnn(C)c2)no1.O=C(O)C(O)C(O)C(=O)O` [Form CSI], the “Crystalline form after ball milling” value in series [1] is “doesn't change; also recorded: no form change”. Moreover, in series [2] (DVS, 25° C., equilibrium at 80% RH), the “Mass increase (weight gain) at 80% RH” value is reported as 0.18%. Moreover, the “Crystalline form after humidity cycle” value in series [2] (cycle of 0% RH-95%RH-0%RH, XRPD) is “remains unchanged”. In addition, the “Time stable on storage (no change of crystalline form)” value in series [3] (25° C./60% RH) is “at least 9 months”; in series [3] (40° C./75% RH) it was “at least 9 months”; in series [3] (60° C./75% RH), “at least 3 months”. The Purity came out at 99.98% in series [3] (setting [4]), 99.99% in series [3] (setting [5]), 99.98% in series [3] (setting [6]) and 99.98% in series [3] (Initial). For the same molecule, the Solid form result in series [3] (setting [4]), in series [3] (setting [5]), in series [3] (setting [6]) and in series [3] (Initial) was “Form CSI” throughout.

The values above are taken from patent publication US20250382286A1, “CO-CRYSTAL OF AFICAMTEN, AND PREPARATION METHOD THEREFOR AND USE THEREOF” (CRYSTAL PHARMACEUTICAL (SUZHOU) CO., LTD., priority 2023, published 2025).
